Assay results published in patent US20040152710A1, “Use of norepinephrine reuptake modulators for preventing and treating vasomotor symptoms” (priority 2002, published 2004).
pEC50: −log10 of the molar value. Where two headings read alike, the source gives them in different places. Blank lines part the entries; values can stand above or below the compound they belong to.

Legend:
human hNET = target: T1, human hNET (Homo sapiens, UniProt P23975); experiment: Norepinephrine (NE) uptake assay in MDCK-Net6 cells; assay type: cell-based; settings: for hNET % Specific NE uptake: at 1 μM
T1 construct: expressed in transfected cells
Description: (§1) Cells were plated at 300,000/T75 flask and cells were split twice weekly. […] Cells were plated at 250,000 cells/T75 flask and split twice weekly.
On day 1, cells were plated at 3,000 cells/well in growth medium and maintained in a cell incubator (37° C., 5% CO2). On day 2, growth medium was replaced with 200 μl of assay buffer (25 mM HEPES; 120 mM NaCl; 5 mM KCl; 2.5 mM CaCl2; 1.2 mM MgSO4; 2 mg/ml glucose (pH 7.4, 37° C.)) containing 0.2 mg/ml ascorbic acid and 10 μM pargyline. Plates containing cells with 200 μl of assay buffer were equilibrated for 10 minutes at 37° C. prior to addition of compounds. […] Data from these wells were used to define non-specific NE uptake (minimum NE uptake). Test compounds were prepared in DMSO (10 mM) and diluted in assay buffer according to test range (1 to 10,000 nM). Twenty-five microliters of assay buffer (maximum NE uptake) or test compound were added directly to triplicate wells containing cells in 200 μl of assay buffer. The cells in assay buffer with test compounds were incubated for 20 minutes at 37° C. […] The reaction was terminated by decanting the supernatant from the plate. The plates containing cells were washed twice with 200 μl assay buffer (37° C.) to remove free radioligand. The plates were then inverted, left to dry for 2 minutes, then reinverted and air dried for an additional 10 minutes. The cells were lysed in 25 μl of 0.25 N NaOH solution (4° C.), placed on a shake table and vigorously shaken for 5 minutes. After cell lysis, 75 μl of scintillation cocktail was added to each well and the plates were sealed with film tape. The plates were returned to the shake table and vigorously shaken for a minimum of 10 minutes to ensure adequate partitioning of organic and aqueous solutions. The plates were counted in a Wallac Microbeta counter (PerkinElmer) to collect the raw cpm data.
(§2) For each experiment, a data stream of cpm values collected from the Wallac Microbeta counter was downloaded to a Microsoft Excel statistical application program. Determination of percent specific NE uptake (% SB) at 1 μM are calculated using a Microsoft Excel spread sheet applying the following formula: [% SB of NE reuptake (% SB)=[(1−(mean cpm control wells−each cpm drug well)/(mean cpm control wells−mean cpm non-specific wells))×100]. Calculations of EC50 values were made using the transformed-both-sides logistic dose response program written by Wyeth Biometrics Department.

hSERT = target: T2, hSERT (Homo sapiens, UniProt P31645); experiment: Serotonin (5-HT) uptake assay in JAR cells; assay type: cell-based; settings: for hSERT % specific 5-HT uptake: at 1 μM
T2 construct: cells were stimulated with staurosporine (40 nM) to increase the expression of the 5-HT transporter; host or cells: JAR (human placental choriocarcinoma)
Description: as §1
The methods for 5-HT functional reuptake using the JAR cell line were modified using a previous literature report. […] On day 2, cells were stimulated with staurosporine (40 nM) to increase the expression of the 5-HT transporter. On day 3, cells were removed from the cell incubator two hours prior to assay and maintained at room temperature to equilibrate the growth medium to ambient oxygen concentration. Subsequently, the growth medium was replaced with 200 μl of assay buffer (25 mM HEPES; 120 mM NaCl; 5 mM KCl; 2.5 mM CaCl2; 1.2 mM MgSO4; 2 mg/ml glucose (pH 7.4, 37° C.)) containing 0.2 mg/ml ascorbic acid and 10 μM pargyline. […] Data from these wells were used to define non-specific 5-HT uptake (minimum 5-HT uptake). Test compounds were prepared in DMSO (10 mM) and diluted in assay buffer according to test range (1 to 1,000 nM). Twenty-five microliters of assay buffer (maximum 5-HT uptake) or test compound were added directly to triplicate wells containing cells in 200 μl of assay buffer. The cells were incubated with the compound for 10 minutes (37° C.). […] The cells were incubated with the reaction mixture for 5 minutes at 37° C. The 5-HT uptake reaction was terminated by decanting the assay buffer. The cells were washed twice with 200 μl assay buffer (37° C.) to remove free radioligand. The plates were inverted and left to dry for 2 minutes, then reinverted and air-dried for an additional 10 minutes. Subsequently, the cells were lysed in 25 μl of 0.25 N NaOH (4° C.) then placed on a shaker table and shaken vigorously for 5 minutes. After cell lysis, 75 μl of scintillation cocktail was added to the wells, the plates were sealed with film tape and replaced on the shake table for a minimum of 10 minutes. The plates were counted in a Wallac Microbeta counter (PerkinElmer) to collect the raw cpm data.
as §2

[1] = system: naloxone-induced flush in morphine-dependent ovariectomized rats; experiment: Morphine-dependent rat model of hot flush (naloxone-induced flush, MD model); settings: for ED50 value, abatement of naloxone-induced flush / effect on naloxone-induced flush at maximal flush (dose response) / effect on naloxone-induced flush at maximal flush: 1 hour prior to naloxone; for ED50 value, abatement of naloxone-induced flush: maximal flush 15 minutes post-naloxone; for effect on naloxone-induced flush at maximal flush (dose response): 15 minutes post-naloxone; for changes in TST over time, effect on naloxone-induced flush: various doses; for ED50: Rattus norvegicus, read-out: ED50 value, abatement of naloxone-induced flush; for effect on naloxone-induced flush at maximal flush: 30 mg/kg intraperitoneally
Description: (§3) Dosing: All doses were prepared based on mg/kg.
(§4) Animals: Ovariectomized Sprague-Dawley rats (180-220 g) were obtained from a commercial vendor (Taconic, Germantown, N.Y.) and individually housed under 12 hours light/dark cycle in a room maintained at 25° C. Animals were provided with standard rat chow and water ad libitum.
Morphine-dependent model: Ovariectomized rats were injected once daily for 8-9 days with vehicle to minimize stress responses and then administered compound(s) on test day. On day 4 of dosing, morphine dependence was induced by sc implantation of two slow-release morphine pellets (75 mg/pellet) in the dorsal scapular region. […] Four to six days after implantation, morphine withdrawal was induced with an opioid antagonist (naloxone) that causes a transient increase in TST. […] Rats were mildly sedated with ketamine and a thermistor connected to a MacLab data acquisition system was taped to the base of the tail. Tail skin temperature was then monitored continuously for 35 minutes to establish a baseline temperature. Naloxone was subsequently administered and TST was measured for an additional 35 to 60 minutes (total recording time 70 to 95 minutes).
Statistical analysis: To analyze changes in TST induced by naloxone in morphine-dependent rats, all data were analyzed using a two factor repeated measure ANOVA for “treatment” and “time.” The model was fit to test whether there were significant differences in the responses between treatment groups. Naloxone administration is designated as time zero and data is then analyzed at 5 minute intervals. The first three readings were averaged and used as baseline TST scores. All data were analyzed as ΔTST (TST for each time point-baseline). Multiple comparisons (LSD p-values) among the treatment groups at each time point were used for the analysis. Efficacy of hot flush abatement was determined by evaluating statistical differences at the peak response time of 15 minutes post-nalbxone, when the maximal change in TST is observed. A customized SAS-excel (SAS Institute, Cary, N.C.) application was used applying a four parameter logistic model to determine ED50 values. A logistic dose transformation was performed on ΔTST. Maximum flush (ΔTST at 15 minutes post-naloxone) was used in the analysis and the minimum was locked at zero. […] Statisticians in the Biometrics Department (Wyeth Research, Collegeville, Pa.) developed a customized JMP application.

[2] = system: tail skin temperature of ovariectomized rats; experiment: OVX-induced thermoregulatory dysfunction telemetry model
Description: as §3, §4
A temperature and physical activity transmitter (PhysioTel TA10TA-F40, Data Sciences International) was implanted subcutaneously in the dorsal scapular region and the tip of the temperature probe was tunneled subcutaneously 2.5 cm beyond the base of the tail. After a 7-day recovery period, TST readings were continuously recorded for the remainder of the study. Tail skin temperature readings were collected from each animal every 5 minutes with values obtained over a 10 second sampling period. The day before test day, an average baseline TST value was calculated for each animal by averaging temperature readings recorded during the 12 hours active (dark) phase. In these studies, animals were dosed approximately 1 hour prior to the onset of dark cycle.
Evaluation of a compound's ability to restore normal lowering of TST in the telemetry model was analyzed using hourly TST values calculated for each animal by averaging the 12 temperature readings obtained every 5 minutes over that recording time. To analyze ΔTST in the telemetry model, a two factors repeated measure ANOVA was performed. The model used for analysis was ΔTST=GRP (group)+HR (hours)+GRP*HR+BASELINE. Thus, the reported least squares means are the expected mean values as if both groups had the same baseline value. Post-hoc tests of hourly GRP*HR samples are t-tests of the difference between groups for each hour. To be conservative, a result was not considered significant unless the p-value was <0.025. All analyses were performed using SAS PROC MIXED (SAS, Carey, N.C.).

[3] = [3H]5-HT uptake, JAR cells, read-out: hSERT EC50

T2 sequence (P31645 whole entry): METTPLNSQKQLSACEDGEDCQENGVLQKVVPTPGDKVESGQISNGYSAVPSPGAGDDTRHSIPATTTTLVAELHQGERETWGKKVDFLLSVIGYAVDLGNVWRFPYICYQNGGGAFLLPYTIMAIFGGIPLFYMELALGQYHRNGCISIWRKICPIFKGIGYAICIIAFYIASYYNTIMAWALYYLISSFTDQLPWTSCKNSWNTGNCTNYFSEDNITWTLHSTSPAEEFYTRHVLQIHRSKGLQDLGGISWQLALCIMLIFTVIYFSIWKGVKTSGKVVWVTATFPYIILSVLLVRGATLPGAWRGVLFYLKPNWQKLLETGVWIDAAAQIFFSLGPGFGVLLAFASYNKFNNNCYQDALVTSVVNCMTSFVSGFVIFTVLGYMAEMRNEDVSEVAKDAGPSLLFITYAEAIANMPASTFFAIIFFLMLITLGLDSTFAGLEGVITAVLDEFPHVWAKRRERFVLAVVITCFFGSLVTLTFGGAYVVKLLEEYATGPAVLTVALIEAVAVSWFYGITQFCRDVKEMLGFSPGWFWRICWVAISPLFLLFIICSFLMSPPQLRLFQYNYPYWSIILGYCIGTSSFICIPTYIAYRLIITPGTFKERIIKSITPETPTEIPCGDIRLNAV
T1 sequence (P23975 whole entry): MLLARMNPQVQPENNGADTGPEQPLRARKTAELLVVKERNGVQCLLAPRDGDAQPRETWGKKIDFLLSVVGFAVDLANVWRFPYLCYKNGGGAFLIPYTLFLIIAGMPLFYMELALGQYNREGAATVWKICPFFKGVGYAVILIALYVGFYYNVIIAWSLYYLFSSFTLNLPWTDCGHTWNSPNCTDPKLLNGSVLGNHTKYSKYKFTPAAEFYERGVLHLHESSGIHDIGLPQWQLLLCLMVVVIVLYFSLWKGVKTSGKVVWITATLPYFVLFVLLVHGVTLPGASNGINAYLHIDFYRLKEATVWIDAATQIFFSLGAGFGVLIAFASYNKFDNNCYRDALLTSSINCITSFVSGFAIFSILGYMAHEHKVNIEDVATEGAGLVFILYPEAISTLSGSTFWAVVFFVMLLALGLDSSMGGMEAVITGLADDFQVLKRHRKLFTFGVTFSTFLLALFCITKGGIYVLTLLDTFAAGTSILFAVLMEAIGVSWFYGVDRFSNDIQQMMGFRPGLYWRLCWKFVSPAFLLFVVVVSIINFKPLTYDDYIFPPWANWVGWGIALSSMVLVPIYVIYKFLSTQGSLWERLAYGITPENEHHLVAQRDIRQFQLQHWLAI

SMILES: CN1CCN(CC(c2cccc(C(F)(F)F)c2)C2(O)CCCCC2)CC1 (stereo not drawn) [1-[2-(4-methyl-1-piperazinyl)-1-[3-(trifluoromethyl)-phenyl]ethyl]cyclohexanol]
pEC50 (human hNET): 7.06 | pEC50 (hSERT; [3]): 4.47

pEC50 (hSERT): 6.56
SMILES: CNCCC(Oc1ccccc1OC)c1ccccc1 (stereo not drawn) [nisoxetine, reference compound]

SMILES: CN(C)C[C@H](c1ccc(O)cc1)C1(O)CCCCC1 (single isomer, unassigned) [S-ODV, S-enantiomer of ODV]
ED50 value, abatement of naloxone-induced flush ([1]; sc): 13.3+8 mg/kg

SMILES: CN(C)C[C@@H](c1ccc(O)cc1)C1(O)CCCCC1 (single isomer, unassigned) [R-ODV, R-enantiomer of O-desmethylvenlafaxine]
ED50 value, abatement of naloxone-induced flush ([1]; sc): 14.4+13 mg/kg

hNET % Specific NE uptake (human hNET): 65% | hSERT % specific 5-HT uptake (hSERT): 79%
SMILES: COc1ccc(C(CN2CCN(C)CC2)C2(O)CCCCC2)cc1 (stereo not drawn) [1-[1-(4-methoxyphenyl)-2-[4-methyl-1-piperazinyl)ethyl]cyclohexanol]

hNET % Specific NE uptake (human hNET): 23% | hSERT % specific 5-HT uptake (hSERT): 72%
SMILES: OC1(C(CN2CCN(c3cccc(Cl)c3)CC2)c2cccc(Cl)c2)CCCCC1 (stereo not drawn) [1-[1-(3-chlorophenyl)-2-[4-(3-chlorophenyl)-1-piperazinyl]ethyl]cyclohexanol]

SMILES: CCOc1ccccc1OC(c1ccccc1)C1CNCCO1 (stereo not drawn) [reboxetine]
effect on naloxone-induced flush at maximal flush (dose response) ([1]; sc): dose-dependently abates the naloxone-induced flush | changes in TST over time, effect on naloxone-induced flush ([1]; sc): dose-dependently abate the naloxone-induced flush

hNET % Specific NE uptake (human hNET): 53% | hSERT % specific 5-HT uptake (hSERT): 88%
SMILES: OC1(C(CN2CCN(Cc3ccccc3)CC2)c2ccc(F)cc2)CCCCC1 (stereo not drawn) [1-[1-(4-fluorophenyl)-2-[4-(phenylmethyl)-1-piperazinyl]ethyl]cyclohexanol]

SMILES: COc1cccc(C(CN2CCN(Cc3ccccc3)CC2)C2(O)CCCCC2)c1 (stereo not drawn) [1-[1-(3-methoxyphenyl)-2-[4-phenylmethyl)-1-piperazinyl]ethyl]cyclohexanol]
hNET % Specific NE uptake (human hNET): 43% | hSERT % specific 5-HT uptake (hSERT): 49%

SMILES: COc1ccc([C@@H](CN(C)C)C2(O)CCCCC2)cc1 (single isomer, unassigned) [S-venlafaxine, S-enantiomer of venlafaxine]
ED50 value, abatement of naloxone-induced flush ([1]; sc): 10.9+3 mg/kg

SMILES: CN(C)CC(c1ccc(O)cc1)C1(O)CCCCC1 (stereo not drawn) [DVS-233, O-desmethyl-venlafaxine]
changes in TST over time ([2]; 60 mg/kg sc): significantly and transiently decreases TST during the active phase

hNET % Specific NE uptake (human hNET): 59% | hSERT % specific 5-HT uptake (hSERT): 58%
SMILES: COc1cccc(C(CN2CCN(c3cncc(Cl)n3)CC2)C2(O)CCCCC2)c1 (stereo not drawn) [1-[2-[4-(6-chloro-2-pyrazinyl)-1-piperazinyl]-1-[3-methoxyphenyl)ethyl]cyclohexanol]

SMILES: CNCCCN1c2ccccc2CCc2ccccc21 [desipramine]
changes in TST over time ([2]; 10 mg/kg sc): significantly decreases TST over the entire length of the active phase | abatement of naloxone-induced flush, alone ([1]; 1 mg/kg sc, 40 minutes prior to naloxone): approximately 50% | hot flush abatement ([1]; 3 mg/kg desipramine co-administered with 10 mg/kg SRI): 100% | abatement of naloxone-induced hot flush ([1]; 10 mg/kg sc): 90.4% | abatement of naloxone-induced hot flush ([1]; 30 mg/kg sc): 96.7% | ED50 value of desipramine in the presence of fluoxetine ([1]; co-administered fluoxetine 10 mg/kg sc): did not change | abatement of naloxone-induced flush in combination with atipamezole ([1]; desipramine 1 mg/kg with atipamezole 0.3 mg/kg, sc): additive effect | abatement of naloxone-induced hot flush when SRI co-administered ([1]; desipramine 10 mg/kg with fluoxetine 10 mg/kg): significantly enhanced abatement of naloxone-induced hot flush | reduction of TST compared to vehicle treated rats ([1]; low dose, naloxone-induced hot flush): 50% | effect on naloxone-induced flush at maximal flush (dose response) ([1]; sc): dose-dependently abates the naloxone-induced flush

SMILES: CN1CCN(CC(c2cccc(Cl)c2)C2(O)CCCCC2)CC1 (racemic) [1-[1-(3-chlorophenyl)-2-(4-methyl-1-piperazinyl)ethyl]cyclohexanol]
changes in TST over time, effect on naloxone-induced flush ([1]; sc): dose-dependently abate the naloxone-induced flush | pEC50 (human hNET): 7.26 | pEC50 (hSERT; [3]): 4.81

SMILES: CNCCC(Oc1ccc(C(F)(F)F)cc1)c1ccccc1 (stereo not drawn) [fluoxetine]
effect on naloxone-induced flush, alone ([1]; fluoxetine 10 mg/kg sc): did not abate the naloxone-induced flush

SMILES: COc1ccc([C@H](CN(C)C)C2(O)CCCCC2)cc1 (single isomer, unassigned) [R-venlafaxine, R-enantiomer of venlafaxine]
ED50 value, abatement of naloxone-induced flush ([1]; sc): 8.3+3 mg/kg

SMILES: COc1ccc(C(CN(C)C)C2(O)CCCCC2)cc1 (stereo not drawn) [venlafaxine]
changes in TST over time ([2]; 15 mg/kg sc): significantly and transiently decreased TST during the active phase | ED50 ([1]; sc): 15 mg/kg | effect on elevated naloxone-dependent hot flush induced by atipamezole ([1]; adrenergic α2 receptor antagonist atipamezole given): able to alleviate

SMILES: CN(C)CC(c1cccc(C(F)(F)F)c1)C1(O)CCCCC1 (stereo not drawn) [WY-867]
effect on naloxone-induced flush at maximal flush [1]: abated the naloxone-induced flush

SMILES: OC1(C(CN2CCN(Cc3ccccc3)CC2)c2cccc(C(F)(F)F)c2)CCCCC1 (stereo not drawn) [1-[2-[4-(phenylmethyl)]-1-piperazinyl]-1-[3-(trifluoromethyl)phenyl]ethyl]cyclohexanol]
hNET % Specific NE uptake (human hNET): 19% | hSERT % specific 5-HT uptake (hSERT): 94%

hNET % Specific NE uptake (human hNET): 38% | hSERT % specific 5-HT uptake (hSERT): 87%
SMILES: COc1cccc(C(CN2CCN(c3cccc(C(F)(F)F)c3)CC2)C2(O)CCCCC2)c1 (stereo not drawn) [1-[1-(3-methoxyphenyl)-2-[4-[3-(trifluoromethyl)-phenyl]-1-piperazinyl]ethyl]cyclohexanol]

SMILES: CN1CCN(CC(c2cccc(F)c2)C2(O)CCCCC2)CC1 (stereo not drawn) [1-[1-(3-fluorophenyl)-2-(4-methyl-1-piperazinyl)ethyl]cyclohexanol]
pEC50 (human hNET): 6.62 | hSERT EC50 (hSERT; [3H]5-HT uptake, JAR cells): Inactive at 1 μm

SMILES: COc1cccc(C(CN2CCN(c3cccc(Cl)c3)CC2)C2(O)CCCCC2)c1 (stereo not drawn) [1-[2-(3-chlorophenyl)1-piperazinyl]-1-[3-methoxyphenyl)ethyl]cyclohexanol]
hNET % Specific NE uptake (human hNET): 64% | hSERT % specific 5-HT uptake (hSERT): 67%

SMILES: CN(C)CC(c1cccc(Cl)c1)C1(O)CCCCC1 (stereo not drawn) [WY-781]
effect on naloxone-induced flush at maximal flush [1]: abated the naloxone-induced flush

hNET % Specific NE uptake (human hNET): 57% | hSERT % specific 5-HT uptake (hSERT): 82%
SMILES: COc1cccc(C(CN2CCN(c3cccc(C(F)(F)F)c3)CC2)C2(O)CCCC2)c1 (stereo not drawn) [1-[1-(3-methoxyphenyl)-2-[4-[3-(trifluoromethyl)-phenyl]-1-piperazinyl]ethyl]cyclopentanol]

SMILES: Fc1ccc([C@@H]2CCNC[C@H]2COc2ccc3c(c2)OCO3)cc1 [paroxetine]
ED50 ([1]; sc): 22.3 mg/kg

SMILES: CCC1(c2cnc[nH]2)Cc2ccccc2C1 [atipamezole]
changes in TST after naloxone, alone ([1]; 0.3 mg/kg sc, 55 minutes prior to naloxone): not significantly different from vehicle treated rats
